Assay results from ChEMBL document CHEMBL2424643, “An efficient synthesis, characterization, and antimicrobial screening of tetrahydropyrimidine derivatives” (2013).
Converted amounts (≈) assume the structure as drawn.

How the values were obtained:
Assay type in all cases: functional
Pseudomonas aeruginosa = test: Antibacterial activity against Pseudomonas aeruginosa MTCC 1688 by two-fold serial dilution method
Streptococcus pyogenes = test: Antibacterial activity against Streptococcus pyogenes MTCC 442 by two-fold serial dilution method
Aspergillus niger = test: Antifungal activity against Aspergillus niger MTCC 282 by two-fold serial dilution method
Staphylococcus aureus = test: Antibacterial activity against Staphylococcus aureus MTCC 96 by two-fold serial dilution method
Escherichia coli = test: Antibacterial activity against Escherichia coli MTCC 443 by two-fold serial dilution method
Aspergillus clavatus = test: Antifungal activity against Aspergillus clavatus MTCC 1323 by two-fold serial dilution method
Candida albicans = test: Antifungal activity against Candida albicans MTCC 227 by two-fold serial dilution method

Compound	MIC (Pseudomonas aeruginosa)	MIC (Streptococcus pyogenes)	MIC (Aspergillus niger)	MIC (Staphylococcus aureus)	MIC (Escherichia coli)	MIC (Aspergillus clavatus)	MIC (Candida albicans)
CC1=C(C(=O)Nc2ccc(C)cc2C)C(c2cccc(Cl)c2)NC(=S)N1 (configuration not stated)	649 µM (≈ 251 µg/mL)	649 µM (≈ 251 µg/mL)	3250 µM (≈ 1250 µg/mL)	812 µM (≈ 313 µg/mL)	325 µM (≈ 125 µg/mL)	3250 µM (≈ 1250 µg/mL)	1620 µM (≈ 627 µg/mL)
CC1=C(C(=O)Nc2ccc(C)cc2C)C(c2ccccc2O)NC(=S)N1 (configuration not stated)	406 µM (≈ 149 µg/mL)	325 µM (≈ 119 µg/mL)	3250 µM (≈ 1190 µg/mL)	812 µM (≈ 298 µg/mL)	325 µM (≈ 119 µg/mL)	3250 µM (≈ 1190 µg/mL)	3250 µM (≈ 1190 µg/mL)
CC1=C(C(=O)Nc2ccc(C)cc2C)C(c2ccc([N+](=O)[O-])cc2)NC(=S)N1 (configuration not stated)	812 µM (≈ 322 µg/mL)	812 µM (≈ 322 µg/mL)	3250 µM (≈ 1290 µg/mL)	812 µM (≈ 322 µg/mL)	406 µM (≈ 161 µg/mL)	3250 µM (≈ 1290 µg/mL)	1620 µM (≈ 644 µg/mL)
CC1=C(C(=O)Nc2ccc(C)cc2C)C(c2cccc([N+](=O)[O-])c2)NC(=S)N1 (configuration not stated)	812 µM (≈ 322 µg/mL)	649 µM (≈ 257 µg/mL)	3250 µM (≈ 1290 µg/mL)	812 µM (≈ 322 µg/mL)	649 µM (≈ 257 µg/mL)	3250 µM (≈ 1290 µg/mL)	1620 µM (≈ 644 µg/mL)
COc1ccc(C2NC(=S)NC(C)=C2C(=O)Nc2ccc(C)cc2C)cc1 (configuration not stated)	325 µM (≈ 124 µg/mL)	406 µM (≈ 155 µg/mL)	3250 µM (≈ 1240 µg/mL)	203 µM (≈ 77.4 µg/mL)	203 µM (≈ 77.4 µg/mL)	3250 µM (≈ 1240 µg/mL)	3250 µM (≈ 1240 µg/mL)
CC1=C(C(=O)Nc2ccc(C)cc2C)C(c2ccc(Cl)cc2)NC(=S)N1 (configuration not stated)	649 µM (≈ 251 µg/mL)	649 µM (≈ 251 µg/mL)	3250 µM (≈ 1250 µg/mL)	812 µM (≈ 313 µg/mL)	812 µM (≈ 313 µg/mL)	3250 µM (≈ 1250 µg/mL)	3250 µM (≈ 1250 µg/mL)
CC1(C)S[C@@H]2[C@H](NC(=O)[C@H](N)c3ccccc3)C(=O)N2[C@H]1C(=O)O [AMPICILLIN]	100 µM (≈ 34.9 µg/mL)	100 µM (≈ 34.9 µg/mL)		250 µM (≈ 87.4 µg/mL)	100 µM (≈ 34.9 µg/mL)		
NYSTATIN			100 µM			100 µM	100 µM
CC1=C(C(=O)Nc2ccc(C)cc2C)C(c2ccccc2[N+](=O)[O-])NC(=S)N1 (configuration not stated)	649 µM (≈ 257 µg/mL)	406 µM (≈ 161 µg/mL)	3250 µM (≈ 1290 µg/mL)	649 µM (≈ 257 µg/mL)	649 µM (≈ 257 µg/mL)	3250 µM (≈ 1290 µg/mL)	3250 µM (≈ 1290 µg/mL)
O=C(N[C@H](CO)[C@H](O)c1ccc([N+](=O)[O-])cc1)C(Cl)Cl [CHLORAMPHENICOL]	50 µM (≈ 16.2 µg/mL)	50 µM (≈ 16.2 µg/mL)		50 µM (≈ 16.2 µg/mL)	50 µM (≈ 16.2 µg/mL)		
CC1=C(C(=O)Nc2ccc(C)cc2C)C(c2cccc(O)c2)NC(=S)N1 (configuration not stated)	649 µM (≈ 239 µg/mL)	203 µM (≈ 74.6 µg/mL)	3250 µM (≈ 1190 µg/mL)	649 µM (≈ 239 µg/mL)	812 µM (≈ 298 µg/mL)	3250 µM (≈ 1190 µg/mL)	1620 µM (≈ 597 µg/mL)
